Source: paper PMC4737989 (European journal of medicinal chemistry, 2016)
Values belong to the molecule of their own block, whether it stands above or below them.

Tests used:
HEK293T cells = conditions: treated HEK293 cells, Cell-TiterGlo
[1] = target: T1, VDR-LBD / Alexa Fluor-SRC2-3 coactivator peptide (Homo sapiens, UniProt P11473, DEL165-215); assay: VDR-coactivator binding fluorescence polarization assay, agonistic binding; conditions: without LG190178
T1 sequence (P11473 with tags, fused parts or gaps DEL165-215 limits assumed): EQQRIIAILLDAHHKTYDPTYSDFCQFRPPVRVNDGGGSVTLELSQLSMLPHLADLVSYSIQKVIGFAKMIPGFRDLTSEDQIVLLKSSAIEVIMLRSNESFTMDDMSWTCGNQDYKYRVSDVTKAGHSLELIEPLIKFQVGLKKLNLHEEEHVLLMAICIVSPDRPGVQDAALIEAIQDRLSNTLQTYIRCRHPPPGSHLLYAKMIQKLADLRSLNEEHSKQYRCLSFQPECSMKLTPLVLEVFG

[2] = target: T1, VDR-LBD / Alexa Fluor-SRC2-3 coactivator peptide; assay: VDR-coactivator binding fluorescence polarization assay, competitive inhibition
VP16-VDR-LBD / SRC1-GAL4 [3] = target: T2, VP16-VDR-LBD / SRC1-GAL4 (Homo sapiens, UniProt P11473); assay: Two-hybrid assay in HEK293T cells, inhibition in the presence of 10 nM 1,25; format: cell-based; conditions: 10 nM 1,25(OH)2D3
T2 sequence (P11473 127-423 limits assumed): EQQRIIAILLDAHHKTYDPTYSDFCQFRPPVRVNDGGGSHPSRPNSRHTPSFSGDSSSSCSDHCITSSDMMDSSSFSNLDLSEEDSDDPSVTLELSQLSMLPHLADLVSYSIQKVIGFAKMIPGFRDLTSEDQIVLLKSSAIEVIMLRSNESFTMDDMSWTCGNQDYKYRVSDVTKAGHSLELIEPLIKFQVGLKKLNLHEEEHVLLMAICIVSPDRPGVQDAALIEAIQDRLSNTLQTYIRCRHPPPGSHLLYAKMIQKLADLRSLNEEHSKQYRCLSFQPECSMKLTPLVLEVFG

PPARα-Gal4 = target: T3, PPARα-Gal4 (Homo sapiens, UniProt Q07869); format: cell-based; conditions: HEK293 cells, luminescence
T3 sequence (Q07869 1-468): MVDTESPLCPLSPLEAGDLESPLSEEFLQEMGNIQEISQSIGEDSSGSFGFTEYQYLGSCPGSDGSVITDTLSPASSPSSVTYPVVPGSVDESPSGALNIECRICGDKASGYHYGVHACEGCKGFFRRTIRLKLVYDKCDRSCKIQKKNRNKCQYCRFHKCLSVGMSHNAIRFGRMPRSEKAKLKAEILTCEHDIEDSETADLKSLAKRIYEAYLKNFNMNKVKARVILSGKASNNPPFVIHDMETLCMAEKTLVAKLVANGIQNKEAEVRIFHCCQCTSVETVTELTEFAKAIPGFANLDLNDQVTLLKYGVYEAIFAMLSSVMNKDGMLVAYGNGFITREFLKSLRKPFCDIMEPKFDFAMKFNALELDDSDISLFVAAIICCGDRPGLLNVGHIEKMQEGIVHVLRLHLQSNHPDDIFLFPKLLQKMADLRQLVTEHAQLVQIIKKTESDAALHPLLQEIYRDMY

VDR target gene CYP24A1 = assay: CYP24A1 gene regulation in DU145 cells by qRT-PCR; format: cell-based; conditions: 7.5 μM, with 20 nM 1,25(OH)2D3, 18 hours
VDR = conditions: cited from earlier work
VP16-VDR-LBD / SRC1-GAL4 [4] = target: T2, VP16-VDR-LBD / SRC1-GAL4; assay: Two-hybrid assay in HEK293T cells, agonist mode; format: cell-based

SMILES: C[C@H](CCC(=O)O)[C@H]1CC[C@H]2[C@@H]3[C@H](O)C[C@@H]4C[C@H](O)CC[C@]4(C)[C@H]3CC[C@]12C [CDCA, chenodeoxycholic acid]
Toxicity LD50 (HEK293T cells): >150 µM

VDR-LBD recruitment of SRC2-3 coactivator peptide (in words) [1]: not able to support
Potency of VDR-SRC2-3 inhibition relative to LCA ([2]; ratio of IC50 values): approximately six times more potent
SMILES: C=C1/C(=C\C=C2/CCC[C@]3(C)[C@@H]([C@H](C)CC(=O)O)CC[C@@H]23)C[C@@H](O)C[C@@H]1O [Calcitroic Acid, calcitroic acid]

SMILES: CC(=O)O[C@@H]1CC[C@@]2(C)[C@H](CC[C@@H]3[C@@H]2CC[C@]2(C)[C@@H]([C@H](C)CCC(=O)O)CC[C@@H]32)C1 [LCA Acetate]
VDR-LBD recruitment of SRC2-3 coactivator peptide (in words) [1]: not able to support
Inhibition of VDR-SRC1 binding in the presence of 1,25(OH)2D3 (in words) (VP16-VDR-LBD / SRC1-GAL4 [3]): No inhibition

SMILES: C[C@H](CCC(=O)O)[C@H]1CC[C@H]2[C@@H]3CC[C@@H]4C[C@H](O[C@@H]5O[C@H](C(=O)O)[C@@H](O)[C@H](O)[C@H]5O)CC[C@]4(C)[C@H]3CC[C@]12C [LCA Gluc I, lithocholic acid glucuronide I]
Activation of transcription for the PPARα-Gal4 system (PPARα-Gal4): no activation of transcription
Inhibition of VDR-SRC1 binding in the presence of 1,25(OH)2D3 (in words) (VP16-VDR-LBD / SRC1-GAL4 [3]): no inhibition

SMILES: C[C@H](CCC(=O)O[C@@H]1O[C@H](C(=O)O)[C@@H](O)[C@H](O)[C@H]1O)[C@H]1CC[C@H]2[C@@H]3CC[C@@H]4C[C@H](O)CC[C@]4(C)[C@H]3CC[C@]12C [LCA Gluc II, lithocholic acid glucuronide II]
Activation of transcription for the PPARα-Gal4 system (PPARα-Gal4): no activation of transcription
Induction of CYP24A1 in the presence of 1,25(OH)2D3 (in words) (VDR target gene CYP24A1): more pronounced
Inhibition of VDR-SRC1 binding in the presence of 1,25(OH)2D3 (in words) (VP16-VDR-LBD / SRC1-GAL4 [3]): no inhibition

SMILES: C[C@H](CCC(=O)O)[C@H]1CC[C@H]2[C@@H]3CC[C@@H]4C[C@H](O)CC[C@]4(C)[C@H]3CC[C@]12C [LCA, lithocholic acid]
Reported cellular activity (VDR): approximately 10 μM

SMILES: COC(=O)CC[C@@H](C)[C@H]1CC[C@H]2[C@@H]3CC[C@@H]4C[C@H](O)CC[C@]4(C)[C@H]3CC[C@]12C [LCME, lithocholic acid methyl ester]
VDR-LBD recruitment of SRC2-3 coactivator peptide (in words) [1]: not able to support
Inhibition of VDR-SRC2-3 binding (in words) ([2]; fluorescence polarization, with LG190178): inactive
Activation in the cellular VDR-SRC1 2-hybrid assay (in words) (VP16-VDR-LBD / SRC1-GAL4 [4]): did not activate transcription

SMILES: C[C@H](CCC(=O)O)[C@H]1CC[C@H]2[C@@H]3[C@@H](O)C[C@@H]4C[C@H](O)CC[C@]4(C)[C@H]3CC[C@]12C [UDCA, ursodeoxycholic acid]
Toxicity LD50 (HEK293T cells): >150 µM
